Measured values: patent US10266537B2, “3-acetylenyl-pyrazole-pyrimidine derivative, and preparation method therefor and uses thereof” (Si Chuan University, priority 2015, dated 2019)
Where two headings read alike, the source gives them in different places.

Tests used:
Btk = Btk (Homo sapiens (Human), UniProt Q06187); assay: Kinase inhibition assay (KinaseProfiler, 33P-ATP); format: biochemical
PKBα(h) = PKBα(h) (Homo sapiens (Human), UniProt P31749); assay: Kinase inhibition assay (KinaseProfiler, 33P-ATP); format: biochemical; conditions: compound at 10 μM, read-out: The percentage of the remaining active protein
CHK1(h) = CHK1(h) (Homo sapiens (Human), UniProt O14757); assay: Kinase inhibition assay (KinaseProfiler, 33P-ATP); format: biochemical; conditions: compound at 10 μM, read-out: The percentage of the remaining active protein
Tie2 = Tie2 (Homo sapiens (Human), UniProt Q02763); assay: Kinase inhibition assay (KinaseProfiler, 33P-ATP); format: biochemical; conditions: Tie2 (h); compound at 10 μM; read-out: The percentage of the remaining active protein
PDGFRα = PDGFRα (Homo sapiens (Human), UniProt P16234); assay: Kinase inhibition assay (KinaseProfiler, 33P-ATP); format: biochemical
Chain of PDGFRα (P16234 24-1089): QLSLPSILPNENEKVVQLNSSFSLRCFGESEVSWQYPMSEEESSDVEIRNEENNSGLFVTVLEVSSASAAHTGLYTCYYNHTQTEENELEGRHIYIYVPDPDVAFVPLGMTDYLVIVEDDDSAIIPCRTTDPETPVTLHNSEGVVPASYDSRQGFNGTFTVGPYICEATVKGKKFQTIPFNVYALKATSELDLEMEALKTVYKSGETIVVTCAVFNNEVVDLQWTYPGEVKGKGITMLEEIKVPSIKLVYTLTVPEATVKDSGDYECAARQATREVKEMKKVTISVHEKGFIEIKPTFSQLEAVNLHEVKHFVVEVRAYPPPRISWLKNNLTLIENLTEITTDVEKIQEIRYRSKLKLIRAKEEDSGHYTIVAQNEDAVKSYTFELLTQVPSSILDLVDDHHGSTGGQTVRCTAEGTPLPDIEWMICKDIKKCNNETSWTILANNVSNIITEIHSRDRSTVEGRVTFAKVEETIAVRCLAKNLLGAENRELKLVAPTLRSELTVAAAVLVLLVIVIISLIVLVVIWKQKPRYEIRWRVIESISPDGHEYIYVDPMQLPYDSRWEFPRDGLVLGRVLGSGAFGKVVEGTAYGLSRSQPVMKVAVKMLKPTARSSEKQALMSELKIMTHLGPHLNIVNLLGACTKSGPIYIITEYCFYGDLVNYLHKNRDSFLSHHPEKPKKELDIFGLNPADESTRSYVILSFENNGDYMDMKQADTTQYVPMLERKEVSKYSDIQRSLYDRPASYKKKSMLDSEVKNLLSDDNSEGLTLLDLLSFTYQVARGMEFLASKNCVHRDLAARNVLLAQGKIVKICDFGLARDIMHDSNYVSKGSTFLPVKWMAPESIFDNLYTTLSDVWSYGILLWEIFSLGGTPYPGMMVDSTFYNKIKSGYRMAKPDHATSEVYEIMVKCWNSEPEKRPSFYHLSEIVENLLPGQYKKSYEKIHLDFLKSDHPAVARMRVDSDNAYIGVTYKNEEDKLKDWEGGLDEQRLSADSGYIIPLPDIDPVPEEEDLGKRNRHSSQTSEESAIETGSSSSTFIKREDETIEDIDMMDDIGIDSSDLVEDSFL

IKKβ = IKKβ (Homo sapiens (Human), UniProt O14920); assay: Kinase inhibition assay (KinaseProfiler, 33P-ATP); format: biochemical; conditions: IKKβ; ATP at Km
KDR = KDR (Homo sapiens (Human), UniProt P35968); assay: Kinase inhibition assay (KinaseProfiler, 33P-ATP); format: biochemical
Chain of KDR (P35968 20-1356): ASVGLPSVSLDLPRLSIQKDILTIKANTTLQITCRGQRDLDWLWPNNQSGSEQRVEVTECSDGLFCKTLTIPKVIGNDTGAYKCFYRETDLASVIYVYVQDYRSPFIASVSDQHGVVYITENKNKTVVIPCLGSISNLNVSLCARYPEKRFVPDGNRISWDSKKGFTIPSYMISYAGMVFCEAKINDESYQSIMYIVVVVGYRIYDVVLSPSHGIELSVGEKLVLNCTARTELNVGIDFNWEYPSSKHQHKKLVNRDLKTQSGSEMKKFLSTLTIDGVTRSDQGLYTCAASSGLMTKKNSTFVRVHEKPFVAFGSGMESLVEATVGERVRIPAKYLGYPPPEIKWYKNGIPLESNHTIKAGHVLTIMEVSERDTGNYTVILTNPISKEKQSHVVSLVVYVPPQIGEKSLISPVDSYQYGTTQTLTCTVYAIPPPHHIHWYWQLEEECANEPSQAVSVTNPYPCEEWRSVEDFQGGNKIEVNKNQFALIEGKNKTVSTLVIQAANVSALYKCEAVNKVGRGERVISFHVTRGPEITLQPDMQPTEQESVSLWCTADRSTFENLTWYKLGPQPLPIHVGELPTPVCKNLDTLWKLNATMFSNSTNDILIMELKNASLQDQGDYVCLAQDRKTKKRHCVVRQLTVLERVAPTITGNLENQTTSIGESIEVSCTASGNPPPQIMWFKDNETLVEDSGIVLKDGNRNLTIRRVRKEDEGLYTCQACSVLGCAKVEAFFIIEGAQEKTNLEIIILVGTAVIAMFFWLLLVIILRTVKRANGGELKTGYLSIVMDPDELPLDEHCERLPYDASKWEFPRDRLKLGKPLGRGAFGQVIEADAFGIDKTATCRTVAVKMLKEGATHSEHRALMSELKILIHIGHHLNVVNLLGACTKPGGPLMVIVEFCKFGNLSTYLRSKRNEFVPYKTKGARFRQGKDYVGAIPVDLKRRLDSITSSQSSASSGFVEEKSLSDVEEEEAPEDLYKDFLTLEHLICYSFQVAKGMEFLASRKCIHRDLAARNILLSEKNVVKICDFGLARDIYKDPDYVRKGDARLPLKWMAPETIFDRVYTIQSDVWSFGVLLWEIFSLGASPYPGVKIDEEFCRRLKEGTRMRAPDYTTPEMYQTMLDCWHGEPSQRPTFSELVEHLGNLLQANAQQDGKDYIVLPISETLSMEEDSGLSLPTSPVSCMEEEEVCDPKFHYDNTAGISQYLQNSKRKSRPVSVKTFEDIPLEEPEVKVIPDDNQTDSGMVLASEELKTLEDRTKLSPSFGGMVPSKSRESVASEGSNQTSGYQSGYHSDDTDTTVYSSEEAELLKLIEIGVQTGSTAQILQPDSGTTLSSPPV

Bmx = Bmx (Homo sapiens (Human), UniProt P51813); assay: Kinase inhibition assay (KinaseProfiler, 33P-ATP)
Chain of Bmx (P51813 whole entry): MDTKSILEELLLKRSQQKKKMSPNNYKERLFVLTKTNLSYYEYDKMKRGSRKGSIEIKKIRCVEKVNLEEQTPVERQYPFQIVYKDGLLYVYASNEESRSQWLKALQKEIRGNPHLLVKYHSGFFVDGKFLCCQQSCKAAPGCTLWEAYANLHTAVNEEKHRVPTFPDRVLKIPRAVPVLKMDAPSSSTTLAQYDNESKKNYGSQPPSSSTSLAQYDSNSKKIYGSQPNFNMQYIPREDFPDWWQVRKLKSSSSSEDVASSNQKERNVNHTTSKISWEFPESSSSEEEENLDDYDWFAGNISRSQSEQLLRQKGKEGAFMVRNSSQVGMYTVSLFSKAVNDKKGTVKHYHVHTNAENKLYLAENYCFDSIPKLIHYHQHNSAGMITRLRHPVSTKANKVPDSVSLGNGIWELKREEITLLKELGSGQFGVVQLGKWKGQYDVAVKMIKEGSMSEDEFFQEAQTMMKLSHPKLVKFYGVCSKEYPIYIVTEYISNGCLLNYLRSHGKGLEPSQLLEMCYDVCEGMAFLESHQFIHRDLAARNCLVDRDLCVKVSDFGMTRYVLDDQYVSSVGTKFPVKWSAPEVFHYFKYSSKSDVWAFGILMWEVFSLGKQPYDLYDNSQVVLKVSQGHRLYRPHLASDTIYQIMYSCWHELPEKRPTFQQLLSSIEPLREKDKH

mTOR(h) = mTOR(h) (Homo sapiens (Human), UniProt P42345); assay: Kinase inhibition assay (KinaseProfiler, 33P-ATP); format: biochemical; conditions: compound at 10 μM, read-out: The percentage of the remaining active protein
HT29 = assay: Cell proliferation inhibition assay (MTT); format: cell-based; conditions: Homo sapiens, HT-29, 72 h, read-out: Proliferation inhibitory activity IC50
Method: (§1) The cells were seeded in 96-well plates with 200 μL of cell suspension per well and incubated overnight in a cell culture medium with a cell concentration of 1 2×10^4 cells/mL. The next day, the supernatant was discarded (the suspension cell was centrifuged before it) and the cells were treated with gradient concentrations of the test compound, respectively. […] After 72 hours, add 20 μL of MTT reagent at a concentration of 5 mg/mL per well. After incubation for 2-4 h, the supernatant was discarded and 150 μL of DMSO was added to each well. […] Relative cell proliferation inhibition rate=([MUT]-[MUT])×100%/[MUT]. The experiment was repeated at least 3 times. Experimental data were expressed as mean, data statistics using t test, P<0.05 for the difference was statistically significant.

EphB2 = EphB2 (Homo sapiens (Human), UniProt P29323); assay: Kinase inhibition assay (KinaseProfiler, 33P-ATP); format: biochemical; conditions: EphB2(h); compound at 10 μM; read-out: The percentage of the remaining active protein
RIPK2(h) = RIPK2(h) (Homo sapiens (Human), UniProt O43353); assay: Kinase inhibition assay (KinaseProfiler, 33P-ATP); format: biochemical; conditions: compound at 10 μM, read-out: The percentage of the remaining active protein
B-Raf = B-Raf (Homo sapiens (Human), UniProt P15056); assay: Kinase inhibition assay (KinaseProfiler, 33P-ATP)
Chain of B-Raf (P15056 whole entry): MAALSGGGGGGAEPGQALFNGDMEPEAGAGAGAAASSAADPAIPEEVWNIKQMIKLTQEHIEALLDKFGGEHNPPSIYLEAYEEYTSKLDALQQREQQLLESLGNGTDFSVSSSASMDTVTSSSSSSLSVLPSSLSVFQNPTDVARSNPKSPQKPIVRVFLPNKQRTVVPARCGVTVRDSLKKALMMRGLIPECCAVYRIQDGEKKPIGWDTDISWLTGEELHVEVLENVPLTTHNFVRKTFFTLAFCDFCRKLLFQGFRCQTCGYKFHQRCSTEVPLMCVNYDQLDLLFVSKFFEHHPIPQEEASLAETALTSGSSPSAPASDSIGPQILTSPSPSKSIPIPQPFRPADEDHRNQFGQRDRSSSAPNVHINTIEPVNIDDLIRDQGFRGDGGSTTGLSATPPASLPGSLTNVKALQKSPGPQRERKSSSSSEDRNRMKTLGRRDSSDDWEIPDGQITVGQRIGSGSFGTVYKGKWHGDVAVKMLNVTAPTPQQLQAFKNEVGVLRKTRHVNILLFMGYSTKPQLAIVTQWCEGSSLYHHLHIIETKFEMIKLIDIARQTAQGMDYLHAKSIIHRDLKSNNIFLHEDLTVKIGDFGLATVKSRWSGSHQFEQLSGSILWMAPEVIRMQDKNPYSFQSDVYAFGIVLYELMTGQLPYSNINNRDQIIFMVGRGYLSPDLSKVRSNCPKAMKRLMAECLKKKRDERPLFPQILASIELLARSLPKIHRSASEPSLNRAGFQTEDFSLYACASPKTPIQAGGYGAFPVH

Itk(h) = Itk(h) (Homo sapiens (Human), UniProt Q08881); assay: Kinase inhibition assay (KinaseProfiler, 33P-ATP); format: biochemical; conditions: compound at 10 μM, read-out: The percentage of the remaining active protein
Fyn = Fyn (Homo sapiens (Human), UniProt P06241); assay: Kinase inhibition assay (KinaseProfiler, 33P-ATP); format: biochemical
Chain of Fyn (P06241 whole entry): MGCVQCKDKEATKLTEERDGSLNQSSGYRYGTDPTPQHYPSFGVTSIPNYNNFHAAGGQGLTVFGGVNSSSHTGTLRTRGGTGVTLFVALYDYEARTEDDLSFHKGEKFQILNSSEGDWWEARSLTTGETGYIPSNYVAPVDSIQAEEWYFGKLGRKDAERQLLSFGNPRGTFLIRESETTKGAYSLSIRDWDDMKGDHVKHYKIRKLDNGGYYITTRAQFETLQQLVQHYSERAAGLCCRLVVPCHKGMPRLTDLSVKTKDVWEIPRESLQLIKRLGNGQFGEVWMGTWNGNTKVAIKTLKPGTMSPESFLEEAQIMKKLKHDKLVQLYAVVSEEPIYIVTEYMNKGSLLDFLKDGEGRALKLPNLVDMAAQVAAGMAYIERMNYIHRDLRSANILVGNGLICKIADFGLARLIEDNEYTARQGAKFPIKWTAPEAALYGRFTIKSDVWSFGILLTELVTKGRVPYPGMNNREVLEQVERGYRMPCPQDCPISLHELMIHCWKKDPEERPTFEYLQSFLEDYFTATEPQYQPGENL

CDK7 = CDK7 (Homo sapiens (Human), UniProt P50613); assay: Kinase inhibition assay (KinaseProfiler, 33P-ATP); format: biochemical; conditions: CDK7; compound at 10 μM; read-out: The percentage of the remaining active protein
PKCα(h) = PKCα(h) (Homo sapiens (Human), UniProt P17252); assay: Kinase inhibition assay (KinaseProfiler, 33P-ATP); format: biochemical; conditions: compound at 10 μM, read-out: The percentage of the remaining active protein
JNK1α1(h) = JNK1α1(h) (Homo sapiens (Human), UniProt P45983); assay: Kinase inhibition assay (KinaseProfiler, 33P-ATP); format: biochemical; conditions: compound at 10 μM, read-out: The percentage of the remaining active protein
Tec(h) activated = Tec(h) activated (Homo sapiens (Human), UniProt P42680); assay: Kinase inhibition assay (KinaseProfiler, 33P-ATP); format: biochemical; conditions: compound at 10 μM, read-out: The percentage of the remaining active protein
c-RAF = c-RAF (Homo sapiens (Human), UniProt P04049); assay: Kinase inhibition assay (KinaseProfiler, 33P-ATP); format: biochemical; conditions: c-RAF(h); compound at 10 μM; read-out: The percentage of the remaining active protein
FAK(h) = FAK(h) (Homo sapiens (Human), UniProt Q05397); assay: Kinase inhibition assay (KinaseProfiler, 33P-ATP); format: biochemical; conditions: compound at 10 μM, read-out: The percentage of the remaining active protein
MDA-MB-231 = assay: Cell proliferation inhibition assay (MTT); format: cell-based, human
Method: (§2) The remaining cell lines were cultured in DMEM complete medium containing 10% fetal bovine serum (MV4-11 cells 20%), 100 U/ml penicillin, 100 μg/mL streptomycin at 5% CO2, and 37° C.
(§3) The cells were seeded in 96-well plates with 200 μL of cell suspension per well and incubated overnight in a cell culture medium with a cell concentration of 1˜2×10^4 cells/mL. The next day, the supernatant was discarded (the suspension cell was centrifuged before it) and the cells were treated with gradient concentrations of the test compound, respectively. At the same time, the drug-free negative control group and the equal volume of solvent control group, DMSO concentration of 0.1%, each dose group set up three wells, 37° C., 5% CO2 conditions. After 72 hours, add 20 μL of MTT reagent at a concentration of 5 mg/mL per well. After incubation for 2-4 h, the supernatant was discarded and 150 μL of DMSO was added to each well. […] Determine the absorbance (A) value (λ=570 nm, A value is proportional to the number of living cells), whichever is the average. […] The experiment was repeated at least 3 times. Experimental data were expressed as mean, data statistics using t test, P<0.05 for the difference was statistically significant. The inhibitory effects of the following compounds on cell proliferation were expressed as IC50 or inhibition rates.

Blk = Blk (Homo sapiens (Human), UniProt P51451); assay: Kinase inhibition assay (KinaseProfiler, 33P-ATP); format: biochemical; conditions: Blk; ATP at Km
EphB4 = EphB4 (Homo sapiens (Human), UniProt P54760); assay: Kinase inhibition assay (KinaseProfiler, 33P-ATP); format: biochemical; conditions: EphB4; ATP at Km
GSK3β(h) = GSK3β(h) (Homo sapiens (Human), UniProt P49841); assay: Kinase inhibition assay (KinaseProfiler, 33P-ATP); format: biochemical; conditions: compound at 10 μM, read-out: The percentage of the remaining active protein
PKBβ(h) = PKBβ(h) (Homo sapiens (Human), UniProt P31751); assay: Kinase inhibition assay (KinaseProfiler, 33P-ATP); format: biochemical; conditions: compound at 10 μM, read-out: The percentage of the remaining active protein
PI3 Kinase a(h) = PI3 Kinase a(h) (Homo sapiens (Human), UniProt P42336); assay: Kinase inhibition assay (KinaseProfiler, 33P-ATP); format: biochemical; conditions: PI3 Kinase a(h); compound at 10 μM; read-out: The percentage of the remaining active protein
MDA-MB-435 = assay: Cell proliferation inhibition assay (MTT); format: cell-based, human
Method: as §2, §3

BT474 = assay: Cell proliferation inhibition assay (MTT); format: cell-based; conditions: Homo sapiens, BT-474, 72 h, read-out: Proliferation inhibitory activity IC50
Method: as §1

PAK1(h) = PAK1(h) (Homo sapiens (Human), UniProt Q13153); assay: Kinase inhibition assay (KinaseProfiler, 33P-ATP); format: biochemical; conditions: compound at 10 μM, read-out: The percentage of the remaining active protein
Fms(h) = Fms(h) (Homo sapiens (Human), UniProt P07333); assay: Kinase inhibition assay (KinaseProfiler, 33P-ATP); format: biochemical; conditions: compound at 10 μM, read-out: The percentage of the remaining active protein
[1] = read-out: The percentage of the remaining active protein

Chain of Btk (Q06187 whole entry): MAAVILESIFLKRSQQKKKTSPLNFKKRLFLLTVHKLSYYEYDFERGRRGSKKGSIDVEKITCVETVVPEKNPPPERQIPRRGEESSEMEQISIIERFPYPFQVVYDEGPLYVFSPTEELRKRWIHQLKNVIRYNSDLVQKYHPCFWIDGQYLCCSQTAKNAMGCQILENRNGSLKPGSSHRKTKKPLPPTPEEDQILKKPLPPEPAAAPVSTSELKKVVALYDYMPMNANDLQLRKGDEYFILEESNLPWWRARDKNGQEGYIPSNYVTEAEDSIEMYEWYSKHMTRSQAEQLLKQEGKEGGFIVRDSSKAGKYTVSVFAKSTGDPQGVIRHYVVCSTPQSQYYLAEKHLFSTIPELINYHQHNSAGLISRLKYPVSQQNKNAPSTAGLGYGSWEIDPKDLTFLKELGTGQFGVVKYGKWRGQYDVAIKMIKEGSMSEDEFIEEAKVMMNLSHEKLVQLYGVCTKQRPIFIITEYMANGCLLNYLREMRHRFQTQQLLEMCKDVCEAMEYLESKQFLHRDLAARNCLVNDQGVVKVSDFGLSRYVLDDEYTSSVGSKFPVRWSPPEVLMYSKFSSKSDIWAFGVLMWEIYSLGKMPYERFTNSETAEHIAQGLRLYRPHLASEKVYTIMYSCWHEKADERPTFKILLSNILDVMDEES

Structure (SMILES): CCn1nc(C#Cc2cc(C(=O)Nc3ccc(CN4CCN(C)CC4)c(C(F)(F)F)c3)ccc2C)c2c(N)ncnc21 [Compound 3]
- remaining activity at 10 µM (Btk; BTK(h), compound at 10 μM, read-out: The percentage of the remaining active protein): -3%
- IC50 (Btk; Btk, ATP at Km): 0.067 µM
- remaining activity at 10 µM (PKBα(h)): 73%
- remaining activity at 10 µM (CHK1(h)): 91%
- remaining activity at 10 µM (Tie2): 3%
- remaining activity at 10 µM (PDGFRα; PDGFRα(h), compound at 10 μM, read-out: The percentage of the remaining active protein): 5%
- IC50 (PDGFRα; PDGFRα, ATP at Km): 0.89 µM
- IC50 (IKKβ): 0.164 µM
- remaining activity at 10 µM (KDR; KDR(h), compound at 10 μM, read-out: The percentage of the remaining active protein): 2%
- IC50 (KDR; KDR, ATP at Km): 0.017 µM
- IC50 (Bmx): 0.006 µM
- remaining activity at 10 µM (Bmx; [1]): 0%
- remaining activity at 10 µM (mTOR(h)): 96%
- IC50 (HT29): 0.166 µM
- remaining activity at 10 µM (EphB2): 0%
- remaining activity at 10 µM (RIPK2(h)): 3%
- IC50 (B-Raf; B-Raf, ATP at Km): 0.092 µM
- remaining activity at 10 µM (B-Raf; [1]): 5%
- remaining activity at 10 µM (Itk(h)): 5%
- remaining activity at 10 µM (Fyn; Fyn(h), compound at 10 μM, read-out: The percentage of the remaining active protein): 0%
- IC50 (Fyn; Fyn, ATP at Km): 0.005 µM
- remaining activity at 10 µM (CDK7): 70%
- remaining activity at 10 µM (PKCα(h)): 101%
- remaining activity at 10 µM (JNK1α1(h)): 66%
- remaining activity at 10 µM (Tec(h) activated): 4%
- remaining activity at 10 µM (c-RAF): 5%
- remaining activity at 10 µM (FAK(h)): 43%
- IC50 (MDA-MB-231; Homo sapiens, MDA-MB-231, 72 h, read-out: Proliferation inhibitory activity IC50): 0.0113 µM
- IC50 (MDA-MB-231; read-out: Proliferative inhibitory activity MDA-MB-231 (IC50 class)): < 0.1 µM
- IC50 (Blk): 0.019 µM
- IC50 (EphB4): 0.023 µM
- remaining activity at 10 µM (GSK3β(h)): 130%
- remaining activity at 10 µM (PKBβ(h)): 52%
- remaining activity at 10 µM (PI3 Kinase a(h)): 93%
- IC50 (MDA-MB-435; Homo sapiens, MDA-MB-435, 72 h, read-out: Proliferation inhibitory activity IC50): 0.00865 µM
- IC50 (MDA-MB-435; read-out: Proliferative inhibitory activity MDA-MB-435 (IC50 class)): < 0.1 µM
- IC50 (BT474): > 10 µM
- remaining activity at 10 µM (PAK1(h)): 57%
- remaining activity at 10 µM (Fms(h)): 0%
